In patent publication US20170165294A1, “METHOD AND APPARATUS FOR ADMINISTERING GASES INCLUDING NITRIC OXIDE TO ADDRESS FIBROSIS” (priority 2015, published 2017):
Read-outs that look alike come from different tables or passages of the source.

What was measured:
[1] = test system: mice with intratracheal administration of LPS; test: LPS-induced lung injury in mice (intratracheal LPS); type: in vivo; conditions: for lung injury: 2% H2 and/or 20 ppm NO for 3 hours starting at 5 minutes or 3 hours after LPS administration; for pulmonary inflammation / cell apoptosis: H2 and/or NO treatment; for cell apoptosis: pulmonary
NF-κB = test: LPS-induced pulmonary NF-κB activation; type: in vivo, mice; conditions: H2 and/or NO treatment
polymicrobial sepsis = test: Polymicrobial sepsis-induced lung injury; type: in vivo; conditions: H2 and/or NO treatment
From the text: However until applicants' discovery, there has not been a successful combination of hydrogen gas with breathing gas using the claimed apparatus and methods. Applicants have discovered that NO's effect as an antioxidant may be enhanced by eliminating highly reactive by-products of NO inhalation such as peroxynitrite, by adding H2 to inhaled NO gas.

chrondrocytes = conditions: cited from earlier work
[2] = test system: brain ischemia-reperfusion (I/R); conditions: inhaled; oxidative stress induced by focal ischemia-reperfusion; cited from earlier work
myofibroblasts = conditions: rat, in vivo; cited from earlier work
rats = conditions: inhaled; cited from earlier work
neonatal piglets = conditions: cited from earlier work; for lung collagen accumulation: short-term inhaled exposure, neonatal piglets
HIF = conditions: cited from earlier work
neonatal rats = conditions: compared with control rats; cited from earlier work

Structure (SMILES) | lung injury [1] | pulmonary inflammation [1] | cell apoptosis [1] | LPS-induced pulmonary early and late NF-κB activation (NF-κB) | lung injury in polymicrobial sepsis (polymicrobial sepsis) | generation of hydroxyl radicals and peroxynitrite (chrondrocytes) | brain injury [2] | collagen synthesis (myofibroblasts) | fibroblast number and differentiation (myofibroblasts) | survival in high O2 exposure (rats) | lung collagen content after recovery (neonatal piglets; after a 3-day recovery period in RA) | lung collagen accumulation (neonatal piglets) | effect on HIF (HIF; high doses and after 30 minutes) | effect on HIF (HIF; low dose, for 30 minutes, during hypoxia) | survival of exposure to >95% O2 (neonatal rats)
[HH] [H2, hydrogen] | significantly improved | down-regulated | down-regulated | inhibited | significantly attenuated | selectively reduce | markedly suppressed |  |  |  |  |  |  |  | 
[N]=O [NO, nitric oxide] | significantly improved | down-regulated | down-regulated | inhibited | significantly attenuated |  |  | inhibiting | reducing | increase survival | significant decline | increases | inhibitory | stimulates | 
COC(=O)[C@@H](N)CCCNC(=N)N[N+](=O)[O-] [Nw-nitro-1-arginine methyl ester] |  |  |  |  |  |  |  |  |  |  |  |  |  |  | significantly fewer survived
O=O [O2, oxygen] |  |  |  |  |  |  |  |  |  |  |  | increases |  |  | 
